According to the supplement of paper PMC10307832:

How the values were obtained:
Experiment in all cases: relative viability (nuclei count vs DMSO), 5 days (fraction); higher = more cells survive
IU1-47 + Alpelisib = compound: CC1=CC(=C(N1C2=CC=C(C=C2)Cl)C)C(=O)CN3CCCCC3 [IU1-47] + Cc1nc(NC(=O)N2CCC[C@H]2C(N)=O)sc1-c1ccnc(C(C)(C)C(F)(F)F)c1 [Alpelisib] (partner 2 µM)
Summary of the method: (§1)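 Lung cancer cell lines were seeded in 1536-well plates and dosed by pin tool the next day, with either a single drug or a fixed anchor-drug dose combined with five library-drug doses (not always all listed) spaced in √10 steps. Five days later, one step fixed the cells and stained their nuclei (final 0.05% Triton X-100, 1% formaldehyde, 1 ug/ml Hoechst), and nuclei were counted on 4× images. Relative viability is the nuclei count in treated wells divided by the count in vehicle wells, and each value is the median of duplicate plates.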

FG-4592 + Linsitinib = compound: Cc1nc(C(=O)NCC(=O)O)c(O)c2ccc(Oc3ccccc3)cc12 [FG-4592] + C[C@]1(O)C[C@@H](c2nc(-c3ccc4ccc(-c5ccccc5)nc4c3)c3c(N)nccn32)C1 [Linsitinib] (partner 1 µM)
Summary of the method: as §1

FG-4592 + Dasatinib = compound: Cc1nc(C(=O)NCC(=O)O)c(O)c2ccc(Oc3ccccc3)cc12 [FG-4592] + Cc1nc(Nc2ncc(C(=O)Nc3c(C)cccc3Cl)s2)cc(N2CCN(CCO)CC2)n1 [Dasatinib] (partner 0.075 µM)
Summary of the method: as §1

IU1-47 + Vorinostat = compound: CC1=CC(=C(N1C2=CC=C(C=C2)Cl)C)C(=O)CN3CCCCC3 [IU1-47] + O=C(CCCCCCC(=O)Nc1ccccc1)NO [Vorinostat] (partner 1 µM)
Summary of the method: as §1

## UMC-11
IU1-47 + Alpelisib; first compound 0.08 µM
  relative viability: 1.09
IU1-47 + Alpelisib; first compound 0.253 µM
  relative viability: 1.1
IU1-47 + Alpelisib; first compound 0.8 µM
  relative viability: 1.02
IU1-47 + Alpelisib; first compound 2.53 µM
  relative viability: 1.24
IU1-47 + Alpelisib; first compound 8 µM
  relative viability: 0.735
FG-4592 + Linsitinib; first compound 0.08 µM
  relative viability: 0.974
FG-4592 + Linsitinib; first compound 0.253 µM
  relative viability: 0.93
FG-4592 + Linsitinib; first compound 0.8 µM
  relative viability: 0.933
FG-4592 + Linsitinib; first compound 2.53 µM
  relative viability: 1.06
FG-4592 + Linsitinib; first compound 8 µM
  relative viability: 0.87
FG-4592 + Dasatinib; first compound 0.08 µM
  relative viability: 0.439
FG-4592 + Dasatinib; first compound 0.253 µM
  relative viability: 0.46
FG-4592 + Dasatinib; first compound 0.8 µM
  relative viability: 0.447
FG-4592 + Dasatinib; first compound 2.53 µM
  relative viability: 0.417
FG-4592 + Dasatinib; first compound 8 µM
  relative viability: 0.493
IU1-47 + Vorinostat; first compound 0.08 µM
  relative viability: 0.409
IU1-47 + Vorinostat; first compound 0.253 µM
  relative viability: 0.408
IU1-47 + Vorinostat; first compound 0.8 µM
  relative viability: 0.374
IU1-47 + Vorinostat; first compound 2.53 µM
  relative viability: 0.413
IU1-47 + Vorinostat; first compound 8 µM
  relative viability: 0.377
